Experimental data from ChEMBL document CHEMBL1142750, “Gastric cytoprotective activity of ilicic aldehyde: structure-activity relationships” (2005).

What was measured:
Format in all cases: functional
Rattus norvegicus [1] = experiment: Percent inhibition ethanol induced necrotic damage of gastric mucosa in male wistar rat after dosage; Dose range 25-100 mg/kg
Rattus norvegicus [2] = experiment: Gastric cytoprotective effect as ulcerative index was calculated in male wistar rat after 100 mg/kg dosage
Rattus norvegicus [3] = experiment: Gastric cytoprotective effect as ulcerative index was calculated in male wistar rat after 20 mg/kg dosage
Rattus norvegicus [4] = experiment: Percent inhibition ethanol induced necrotic damage of gastric mucosa in male wistar rat after 1 hr of contact with synthetic gastric juice; Dose range 25?100 mg/kg
Rattus norvegicus [5] = experiment: Percent inhibition ethanol induced necrotic damage of gastric mucosa in male wistar rat after 2 hr of contact with synthetic gastric juice; Dose range 25?100 mg/kg
Rattus norvegicus [6] = experiment: Gastric cytoprotective effect as ulcerative index was calculated in male wistar rat at 100 mg/kg dose after 1 hr of contact with synthetic gastric juice
Rattus norvegicus [7] = experiment: Gastric cytoprotective effect as ulcerative index was calculated in male wistar rat at 100 mg/kg dose after 2 hr of contact with synthetic gastric juice

C=C(C=O)[C@@H]1CC[C@@]2(C)CCCC(C)=C2C1
Inhibition of damage (Rattus norvegicus [1]): 5% | Ulcerative index (Rattus norvegicus [2]): 4.62

C=C(C=O)[C@@H]1CC[C@@]2(C)CCC[C@@](C)(O)C2C1 (some centres not stated)
Inhibition of damage (Rattus norvegicus [1]): 96% | Ulcerative index (Rattus norvegicus [2]): 0.2

C=C(CO)[C@@H]1CC[C@@]2(C)CCC[C@@](C)(O)C2C1 (some centres not stated)
Inhibition of damage (Rattus norvegicus [1]): 1% | Ulcerative index (Rattus norvegicus [2]): 4.8

C=C(C(=O)O)[C@@H]1CCC2=CC=C[C@H](C)[C@@]2(C)C1
Ulcerative index (Rattus norvegicus [3]): 3.7 | Inhibition of damage (Rattus norvegicus [1]): 23%

C=C1C(=O)O[C@H]2C1CCC(C)=C1C(=O)C=C(C)[C@@H]12 (some centres not stated)
Inhibition of damage (Rattus norvegicus [1]): 97% | Ulcerative index (Rattus norvegicus [2]): 0.16

C=C(C=O)[C@@H]1CC[C@@]2(C)CCC[C@@](C)(OC(=O)C(F)(F)F)C2C1 (some centres not stated)
Inhibition of damage (Rattus norvegicus [4]): 86% | Inhibition of damage (Rattus norvegicus [5]): 96% | Ulcerative index (Rattus norvegicus [6]): 0.66 | Ulcerative index (Rattus norvegicus [7]): 0.16

C=C(C=O)[C@@H]1CC[C@@]2(C)CCC[C@@](C)(O[Si](C)(C)C)C2C1 (some centres not stated)
Inhibition of damage (Rattus norvegicus [1]): 48% | Ulcerative index (Rattus norvegicus [2]): 2.5

C=C1C(=O)O[C@]23C[C@H]1CC[C@@]2(C)CCC[C@H]3C
Inhibition of damage (Rattus norvegicus [1]): 48% | Ulcerative index (Rattus norvegicus [2]): 2.5

C=C1C(=O)O[C@]23C[C@H]1CC[C@@]2(C)CCCC3=C
Inhibition of damage (Rattus norvegicus [1]): 30% | Ulcerative index (Rattus norvegicus [2]): 3.37

C=C1CCC[C@]2(C)CC[C@@H](C(=C)C=O)CC12 (some centres not stated)
Inhibition of damage (Rattus norvegicus [1]): 23% | Ulcerative index (Rattus norvegicus [2]): 3.75

C=C(C(=O)O)[C@@H]1CC[C@@]2(C)CCC[C@@](C)(O)C2C1 (some centres not stated)
Inhibition of damage (Rattus norvegicus [1]): 5% | Ulcerative index (Rattus norvegicus [2]): 4.62

C=C(C(=O)O)[C@@H]1CC[C@@]2(C)CCCC(C)=C2C1
Inhibition of damage (Rattus norvegicus [1]): 17% | Ulcerative index (Rattus norvegicus [2]): 4

COc1ccc2[nH]c([S+]([O-])Cc3ncc(C)c(OC)c3C)nc2c1 (configuration not stated) [OMEPRAZOLE]
Ulcerative index (Rattus norvegicus [3]): 3 | Inhibition of damage (Rattus norvegicus [1]): 38%

C=C(C(=O)OC)[C@@H]1CCC2=CC(=O)C[C@H](C)[C@@]2(C)C1 [TESSARIC ACID METHYL ESTER]
Inhibition of damage (Rattus norvegicus [1]): 5% | Ulcerative index (Rattus norvegicus [2]): 4.62

C=C(C(=O)O)[C@@H]1CCC2=CC(=O)C[C@H](C)[C@@]2(C)C1 [TESSARIC ACID]
Inhibition of damage (Rattus norvegicus [1]): 5% | Ulcerative index (Rattus norvegicus [2]): 4.62
